Experimental data: patent publication US20260297136A1, “PEPTIDES WITH LIPOLYTIC, ANTI-LIPOGENIC, ANTIFIBROTIC AND ANTI-INFLAMMATORY ACTIVITY” (FUNDACIÓ HOSPITAL UNIVERSITARI VALL D'HEBRON - INSTITUT DE …, priority 2023, published 2026)

How the values were obtained:
human mature adipocytes = assay: Lipolysis in human mature adipocytes (glycerol production), Example 3; type: cell-based; conditions: 16 h
Procedure: FIG. 4 Mature human subcutaneous adipocytes were treated with vehicle (DMSO), 1 μM of Isoproterenol, Semaglutide (10 nM) or GP6 (25, 50 or 100 μg/ml) for 16 h. Glycerol concentration was assessed using a Lipolysis Assay Kit (Tebu-bio).
Human preadipocytes and cell culture reagents were from purchased from Tebu-Bio (Tebu-bio, Barcelona, Spain) and differentiation protocol was done following the manufacturer's instructions. Human adipocytes were maintained in a humidified incubator with 5% CO2 at 37° C. (Sex hormone-binding globulin overexpression protects against high-fat diet-induced obesity in transgenic male mice. Saez-Lopez C, Villena J A, Simo R, Selva D M. J Nutr Biochem. 2020 November; 85:108480. doi: 10.1016/j.jnutbio.2020.108480).
Lipolysis assays were performed using a Lipolysis Kit (Tebu-Bio) following the manufacturer's instructions as previously described by Saez-Lopez and collaborators (Sex hormone-binding globulin overexpression protects against high-fat diet-induced obesity in transgenic male mice. Saez-Lopez C, Villena J A, Simo R, Selva D M. J Nutr Biochem. 2020 November; 85:108480. doi: 10.1016/j.jnutbio.2020.108480.)

HepG2 cells = assay: Hepatic lipogenesis gene expression in HepG2 cells (24 h), Example 7; type: cell-based, human; conditions: 40 μg/ml, vs vehicle
Excerpt: FIG. 32. Effect of GP6 and modified peptides on hepatic lipogenesis in HepG2 cells. Each bar within each group represents mRNA levels of a key hepatic lipogenic enzyme, from left to right: Acetyl-CoA Carboxylase (ACC), ATP Citrate Lyase (ACLY) and Fatty Acid Synthase (FAS), and a key transcription factor regulating several lipogenic enzymes such as PPARγ (PPARγ).
Cell culture reagents were from Life Technologies Inc (Invitrogen SA, Barcelona, Spain). HepG2 hepatoblastoma cells (cat. no. HB-8065; ATCC, LGC Standards SLU, Barcelona, Spain) were maintained in Dulbecco's modified Eagle medium (DMEM) supplemented with 10% fetal bovine serum and antibiotics.
• HepG2 cells were cultured for 5 day in the absence or presence of 30 mM fructose. Cells cultured in 30 mM fructose were daily treated with vehicle, Telmisartan, Semaglutide or EDL6D. • HepG2 cells were cultured for 24 h in the absence or presence of GP6 (40 μg/ml), GP10 (40 μg/ml), GP11 (40 μg/ml), GP12 (40 μg/ml), GP13 (40 μg/ml) or SHBG (20 nM). • HepG2 cells were cultured in the absence or presence of 30 mM fructose and treated for 2 h with vehicle or GP4 (40 μg/ml), GP6 (40 μg/ml), GP7 (40 μg/ml), GP8 (40 μg/ml), GP9 (40 μg/ml), GP10 (40 μg/ml), GP11 (40 μg/ml), GP12 (40 μg/ml), GP13 (40 μg/ml) or SHBG (20 nM).
Total RNA was extracted from HepG2 and LX-2 cells using TRIzol reagent (Invitrogen SA). Reverse transcription was performed at 42° C. for 50 minutes using […] of total RNA, 200 U of Superscript II, and an oligo-dT primer and reagents provided by Invitrogen. An aliquot of the reverse transcription product was amplified in a […] reaction using SYBRGreen (Invitrogen SA) with appropriate oligonucleotide primer pairs corresponding to human SHBG, ACC, FAS, ACLY, PPARG, and 18S and mouse ACC, FAS, ACLY, PPARG, Col1A1 and 18S. Results were analyzed using the 7000 Sequence Detection System program (Applied Biosystems, Thermo Fisher Scientific, Barcelona, Spain) (Shez-Lopez et al Endocrinology 2017).

[1] = tested on: obesity and fatty liver disease mouse model; assay: Therapeutic effects in an obesity and fatty liver disease mouse model, Example 6; type: in vivo, C57BL6/J male mice
Procedure: C57BL6/J male mice were purchased and kept for quarantine and acclimatization for a period of about 7 days before initiation of every experiment. Mice were housed in clean and sterilized mice cages and maintained in a controlled environment with 22+3° C. temperature, 50+20% humidity, a light/dark cycle of 12 hours each and 15-20 fresh air changes per hour.
For Obesity and NAFLD induction, the animals were fed ad libitum, either with chow diet (150SP-10, Safe Diets) or 45% high-fat diet (TD.190179, Envigo) plus 30% fructose (F0127, Sigma Aldrich) in drinking water for 20 weeks. The therapeutic effect of a daily subcutaneous injection of GP6 (20 mg/kg/day) in this mouse model was assessed for 10 weeks, starting the treatment on week 10 of the experiment until week 20.
A group of control mice (n=10) was fed with control diet and regular drinking water and a group of mice (n=30) obesity and fatty liver disease was induced for 10 weeks. At this point, mice were randomly divided in three groups of n=10, the first group was treated with daily subcutaneous injections of vehicle (water), the second group was treated with Telmisartan (5 mg/kg/day) in the drinking water and a subcutaneous injection of vehicle, and the third group with daily subcutaneous injection of GP6 (20 mg/kg/day) during 10 weeks.
At the end of the experiment mice were sacrificed, serum samples were extracted, tissues were weighted and part was fixed in paraformaldehyde for histology studies and part immediately frozen at −80 C for mRNA and protein expression studies as well as assessment of triglycerides.
The histology studies, AST and ALT measurements, TG measurements, and the RNA analysis were performed as described in Example 4.

[2] = 20 mg/kg/day sc, 10 weeks, vs vehicle
[3] = 20 mg/kg/day sc, 10 weeks, blind pathologist, lipid reduction corroborated

In the case of CC[C@@H](C)[C@@H](NC(=O)[C@H](NC(=O)CNC(=O)[C@@H](CCC(=O)O)NC(=O)[C@H]1CCCN1C(=O)[C@@H](CC(=O)O)NC(=O)[C@@H](Cc1c[nH]c2ccccc12)NC(=O)[C@H](NC(=O)[C@@H](CCCNC(=N)N)NC(=O)[C@H](NC(=O)[C@@H](CCC(=O)O)NC(=O)[C@@H](Cc1ccccc1)NC(=O)[C@@H](CO)NC(=O)[C@@H](CO)NC(=O)[C@@H](CO)NC(=O)[C@H](NC(=O)[C@@H](CCCCN)NC(=O)[C@H](N)[C@H](C)O)[C@H](C)O)C(C)C)[C@H](C)O)C(C)C)C(=O)N[C@H](Cc1ccccc1)C(=O)N[C@H](Cc1ccc(O)cc1)C(=O)O [GP6], the “increase of glycerol production (lipolysis)” value (shortened to “increase”) (human mature adipocytes; 25 μg/ml) is reported as 200%, the “increase” value (human mature adipocytes; 50 μg/ml) is reported as 270% and the “increase” value (human mature adipocytes; 100 μg/ml) is reported as 315%. The “lipolysis induction compared with Semaglutide” value (human mature adipocytes; GP6 25, 50 or 100 μg/ml versus Semaglutide 10 nM) was “performing more efficiently than Semaglutide”, the “ACC mRNA levels” value (HepG2 cells) was “reduced the mRNA levels” and the “ACLY mRNA levels” value (HepG2 cells) was “reduced the mRNA levels”. The “FAS mRNA levels” value (HepG2 cells) was “reduced the mRNA levels”, the “PPARγ mRNA levels” value (HepG2 cells) was “reduced the mRNA levels” and the AST serum levels ([1]; 20 mg/kg/day sc, 10 weeks) was “reduced significantly”. The “hepatic fibrosis (picrosirius staining)” value ([1]; 20 mg/kg/day sc, 10 weeks) was “did not showed hepatic fibrosis”, the “total body weight gain” value ([1]; 20 mg/kg/day sc, 10 weeks) was “reducing total body weight gain” and the “reduction of hepatic lipid accumulation compared with Telmisartan” value ([1]; 20 mg/kg/day sc, 10 weeks, vs Telmisartan 5 mg/kg/day) was “to a greater extend than Telmisartan treatment”. For the same compound, the “Total body weight versus control mice” value ([1]; 20 mg/kg/day sc, 10 weeks, vs control diet mice) was “not significantly heavier than control mice”, the “ACC mRNA levels in hepatic tissue” value [1, 2] was “reduced the mRNA levels” and the “Col1A1 expression in hepatic tissue” value [1, 2] was “reduced expression levels”. For the same compound, the “F480 mRNA levels (adipose tissue inflammation)” value [1, 2] was “reduced expression”, the “F480 mRNA levels in hepatic tissue” value [1, 2] was “reduced expression” and the “IL1β expression (adipose tissue inflammation)” value [1, 2] was “reduced expression”. For the same compound, the “PPARγ mRNA levels in hepatic tissue” value [1, 2] was “reduced the mRNA levels”, the “TGFβ1 expression in hepatic tissue” value [1, 2] was “reduced expression levels” and the “adipose tissue fibrosis (Col1A mRNA expression)” value [1, 2] was “reduced adipose tissue fibrosis”. The “heart fibrosis (Col1A1 mRNA expression)” value [1, 2] was “reduced heart fibrosis”, the “hepatic expression of TNFα” value [1, 2] was “reduced the hepatic expression” and the “liver triglyceride (TAG) content” value [1, 2] was “reduced significantly”. For the same compound, the liver weight [1, 2] was “reduced significantly”, the serum glucose levels [1, 2] was “reduced the increase glucose levels” and the “hepatic lipid accumulation (histology)” value ([1]; 20 mg/kg/day sc, 10 weeks, vs vehicle, H&E) was “reduced significantly”. The Brunt score [1, 3] was “corroborated”, the Steatosis score [1, 3] was “corroborated” and the “Alanine transaminase (ALT) serum levels” value ([1]; sc, as stated in the summary for Example 6) was “reduction”.
